Measured values from patent US20130012709A1, “NOVEL INHIBITORS OF STEAROYL-CoA-DESATURASE-1 AND THEIR USES” (CENTRE NATIONAL DE LA RECHERCHE SCIENTIFIQUE, priority 2009, published 2013).
Where two headings read alike, the source gives them in different places.

Experiments:
C4-2 cells [1] = assay: Proliferation by BrDU incorporation
Experimental: (§2) LNCaP and C4-2 cells grown on coverslips were incubated for 4 hours with BrdU (100 μM final) at 24 hours and 48 hours following SCD-1 knock-down. Cells were then fixed and permeabilized with cold methanol for 10 min at −20° C. After 3 washes with PBS, DNA was denaturated with 4NHCL for 10 min at RT, and cells were incubated with blocking buffer (PBS-1% BSA). BrDU was then detected with anti-BrDU monoclonal antibody 1:50 (Dako, Carpinteria, Calif.) for 1 hour at 37° C. After 3 washes with PBS, cells were incubated with an FITC-conjugated anti-mouse secondary antibody 1:150 (Jackson Immunoresearch) for 30 min at 37° C., and slides were mounted in mowiol.

LNCaP cells [2] = assay: Proliferation by BrDU incorporation; assay type: cell-based, human
Experimental: as §2

SCD1 mRNA and protein = assay: SCD-1 knock-down by siRNA, mRNA and protein expression; assay type: cell-based, human
Experimental: For small interfering (si) RNA experiments, transfection of LNCaP or C4-2 cells was carried out with pre-designed ON-TARGET plus siRNA oligonucleotides control or targeting the human SCD-1 sequence GCACAUCAACUUCACCACA (Dharmacon, Lafayette, Co, USA).
Nucleofaction of cells with 2.5 μg siRNA were performed on 2×10^6 cells using Amaxa nucleofactor R kit (Lonza, Cologne, Germany). Twenty-four hours and 48 hours after transfection, cells were processed for cell proliferation by BrdU staining and harvested for RNA and protein analysis.
RNA was extracted with the use of TRI-Reagent (Euromedex, Mundolsheim, France) according to the manufacturers' recommendations. Reverse transcription of total RNA was performed at 37° C. using the M-MLV reverse transcriptase (Invitrogen) and random hexanucleotide primers (Promega, Madison, Wis.), followed by a 15 min inactivation at 70° C. Quantitative PCR was conducted using the primers specific for human SCD1 and SYBR Green Light Cycler Master Mix (Eurofins MWG Operon, Roissy CDG). […] Values are expressed as the relative mRNA level of specific gene expression as obtained using the formula 2^−(ΔCt).

C4-2 cells [3] = system: C4-2 cells
Experimental: (§3) After 48 h, medium was removed and 250 μl of a 5 mg/ml MTT (Sigma, St Louis, Mo., USA) solution in PBS was added to each well. After 4 h incubation at 37° C., the MTT solution was removed, 200 μl of DMSO (Sigma) was added and cells were incubated for 5 min. Two hundred microliters of each samples was distributed in 96-well plates for an optical density reading at 540 nm.

C4-2 cells [4] = assay: MTT assay (cell viability); conditions: 48 h
Experimental: as §3

C4-2 cells [5] = assay: Flow cytometry analysis of cell cycle; assay type: cell-based, human; conditions: 25 μM, 48 h; untreated cells 22
Experimental: (§1) Cells were then rinsed in PBS, pelleted at 400 g for 5 min and maintained on ice for 20 min before resuspension in a […] propidium iodide (Sigma) solution. Cells were kept overnight at 4° C. and the percentages of cells in G1, S and G2-M phases of the cell cycle were measured with a Coulter Epics XL™ flow cytometer (Becton Dickinson) using 488-nm laser excitation. For apoptosis experiment, MEFs were treated with the tested compound at 25 μM for 24 h, then rinced in PBS, pelleted at 400 g for 5 min and stained with annexinV-FITC (Roche Diagnostics, Meylan, France) for 15 min at 4° C. The percentage of annexin positive cells was immediately analysed using 488-nm laser excitation.

LNCaP cells [6] = assay: Flow cytometry analysis of cell cycle; assay type: cell-based, human; conditions: 25 μM, 48 h; untreated cells 20
Experimental: as §1

For “siRNA: pre-designed ON-TARGET plus siRNA oligonucleotides targeting the human SCD-1 sequence GCACAUCAACUUCACCACA (Dharmacon) (chemistry not given here) [reference compound]”, the “proliferation after SCD-1 knock-down” value (C4-2 cells [1]; C4-2, siRNA) was “marked decrease”, the “proliferation after SCD-1 knock-down” value (LNCaP cells [2]; LNCaP, siRNA) was “marked decrease” and the “SCD1 mRNA and protein expressions” value (SCD1 mRNA and protein) was “blocked”.

For `COc1ccc(Br)c(C(=O)N2CCN(S(=O)(=O)c3ccccc3F)CC2)c1` [Example 13, 1N-[(2-bromo-5-methoxybenzoyl)]-4N-[(2-fluorophenyl)sulfonyl]piperazine], the “% Inhibition of proliferation at 25 μM (BrDU) on C4-2” value (C4-2 cells [1]; 25 μM, 48 h of treatment) was 55.6 ± 3.1%, the “% Inhibition of proliferation at 25 μM (BrDU) on LNCaP” value (LNCaP cells [2]; 25 μM, 48 h of treatment) was 27.1% and the “Viable C4-2 cells at 25 μM (% of control)” value (C4-2 cells [3]) was 56 % of control.

With `COc1ccc(Br)c(C(=O)N2CCN(S(=O)(=O)c3ccc(F)cc3)CC2)c1` [Example 2, 1-[(2-bromo-5-methoxybenzoyl)]-4-[(4-fluorophenyl)sulfonyl]piperazine] the “Viable C4-2 cells at 25 μM (% of control)” value (C4-2 cells [4]) was 49 % of control, the melting point was 202 °C and the inhibition at 25 µM (C4-2 cells [1]; Homo sapiens, C4-2, 48 h, read-out: % Inhibition of proliferation at 25 μM (BrDU) on C4-2) was 37.2 ± 8.8%. For the same molecule, the “% C4-2 cells in phase S at 25 μM” value (C4-2 cells [5]) was 11.8% and the “% LNCaP cells in phase S at 25 μM” value (LNCaP cells [6]) was 5%.
